In patent publication US20210393547A1, “USE OF EMODIN IN TREATING RETINAL ISCHEMIA OR A DISEASE, CONDITION, OR DISORDER ASSOCIATED WITH RETINAL ISCHEMIA” (priority 2020, published 2021):

Tested on: retinal ganglion cells (RGC) in ischemic retina of Wistar rats
Experiment: Retrograde fluorogold labeling of RGCs after retinal ischemia/reperfusion
Assay type: in vivo, rat
Settings: n=4, mean±SE
Protocol: Emodin was purchased from Sigma-Aldrich (E7881; 90%; storage at 2-8° C.; from Frangula bark; St. Louis, Mo., United States). Drug administration for different procedures, namely ERG, fluorogold RGC labelling, cresyl violet retinal staining and Western blot assays, were described in Tables 3 to 6. Vehicle or emodin (5 μL) was administered via an intravitreous injection route so that these agents were then able to be directly diffused to the target. Emodin was dissolved in vehicle (DMSO:distilled water=1:3). The defined final cellular concentrations of administered drug were 0.25 or 0.5 μM, which were achieved after 40 times dilution from the stock concentrations, namely 10 or 20 μM, based on an arbitrary definition of the vitreous volume as 200 μL. To test a wider range of dose-response, 4 μM of emodin was thus added in the animal experiments. The Vehicle+IR and Emo+IR groups (pre-ischemic administration of emodin 4, 10 or 20 μM) were subjected to following the experimental procedures; these were initial pre-ischemic intravitreous injection (vehicle or emodin), retinal ischemia induction 1 day later, and sacrifice of the animal on the following day to allow the various post-mortem procedures except ERG. […] Finally, the samples were then analyzed by fluorescent microscopy. The RGC density was defined as the total RGC amount divided by the whole retinal area and its mean was then calculated.

Cc1cc(O)c2c(c1)C(=O)c1cc(O)cc(O)c1C2=O [emodin, 6-methyl-1,3,8-trihydroxyanthraquinone] was tested, and the “RGC density (retrograde fluorogold labeled)” value (Emo10+IR: pre-ischemic intravitreous 10 μM emodin, P<0.01, Sham 5323.53, Vehicle+IR 2069.12) was 3345.59±206.80 /0.17 mm^2 and the “RGC density (retrograde fluorogold labeled)” value (Emo20+IR: pre-ischemic intravitreous 20 μM emodin, P<0.001) was 4623.53±179.48 /0.17 mm^2.
